# Experimental data: US9296778B2, “3′,5′-cyclic phosphate prodrugs for HCV infection” (Idenix Pharmaceuticals, Inc., priority 2012, dated 2016)
# pEC50: −log10 of the molar value.
# Tests used:
# HCV genotype 1b replicon = assay: HCV Replicon Assay; format: cell-based; settings: Hepatitis C virus, 72 h, Zluc cells (Huh-7-derived, HCV genotype 1b replicon, luciferase reporter), 72 hours; read-out: HCV Replicon EC50
# Summary of the method: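 Zluc Huh-7 cells with HCV genotype 1b replicon and luciferase reporter treated with 5-fold dilutions (100 μM to 0.0000512 μM final) in duplicate, or at 1 and 10 μM. Luminescence read with ONE-glo; EC50 from dose-response fits, or % inhibition at the fixed concentrations.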
# [1] = Stability in simulated gastric fluid; format: in vitro ADME; settings: 100 μM, 2 hours at 37° C., percent of the peak area at time zero
# Summary of the method: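 Compounds at 100 μM final, in duplicate, kept 2 h at 37° C in USP gastric fluid (pepsin) or intestinal fluid (pancreatin). Quenched with cold acetonitrile, supernatant analysed by C-18 HPLC, UV 252 nm. Remaining compound expressed as percent of time-zero peak area.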
# [2] = Stability in fresh human whole blood; format: in vitro ADME; settings: 0.5 μM, percent unchanged test compound
# Summary of the method: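 Test compound at 0.5 μM was incubated at 37 °C in fresh human K2EDTA whole blood, stored at 2–8 °C and used within 7 days, in triplicate. Samples taken at 0, 0.5, 1 and 2 h were quenched in cold acetonitrile containing internal standard and analysed by LC-MS/MS. Percent unchanged compound was derived from peak-area ratios.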
# Stability in mouse blood = format: in vitro ADME; settings: on ice, percent unchanged test compound
# Summary of the method: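 Test compound at 0.5 μM final in whole blood, held on ice; sampled at 0, 0.5 and 1 hr in triplicate. Samples quenched with acetonitrile containing internal standard and analysed by LC-MS/MS; percent unchanged compound from peak area ratio to internal standard.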
# [3] = Stability in liver subcellular fractions (microsomes); format: in vitro ADME, human; settings: 10 μM, 1.0 mg/mL microsomal protein, NADPH, 60 min, percent unchanged test compound
# Method: Stability of compounds were determined in subcellular fractions (microsomes) of human liver in duplicate for each matrix. Pooled liver microsomal proteins (1.0 mg/mL), suspended in incubation buffer (100 mM potassium phosphate, pH 7.4, 5 mM MgCl2, and 0.1 mM EDTA), were preincubated for 5 min at 37° C. with 10 μM of a test compound from a 10 mM stock solution in DMSO (final DMSO concentration was 0.1%); the reaction was initiated by the addition of NADPH (3 mM final concentration). At specific times (0 and 60 min), 0.1 mL samples were taken and the reaction terminated by the addition of 4 volumes of stop solution (acetonitrile with 500 ng/mL carbutamide as an internal standard). The samples were vortexed for 30 sec and then centrifuged at 16,000 g for 10 min. 100 μL of supernatants were transferred to 96 deep-well plates preloaded with 100 μL distilled water and analyzed after mixing by LC-MS/MS. The MS peak area ratio of the test compounds versus the internal standard was calculated and percent unchanged test compound over 60 minutes was calculated using this ratio.
# fresh human hepatocytes = assay: Release of active metabolite in fresh human hepatocytes; format: in vitro ADME; settings: 10 μM compound
# Summary of the method: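 Overnight-acclimatized hepatocytes (0.8 million cells/well human, 0.5 million mouse) incubated at 37 °C with 10 μM test compound (0.1% DMSO). Sampled at 6, 24, 48 h (human) or 1, 4, 8, 12, 24 h (mouse); cells washed, extracted in cold 70% methanol, intracellular content quantified by LC-MS/MS with internal standard.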
smiles,measurement,setting,value
"CCOc1nc(N)nc2c1ncn2[C@@H]1O[C@@H]2COP(=O)(OCCCC(=O)OC(C)C)O[C@H]2[C@@]1(C)F (single isomer, unassigned) [Compound 20 Diastereomer 1]",pEC50,HCV genotype 1b replicon,> 6.60
same,Stability SGF,[1],98%
same,Stability WB_Human (37° C.; 2 hr),[2],98%
same,Stability WB_Mouse (ice; 1 hr),Stability in mouse blood,1%
same,Stability HLM (1 hr),[3],0.35%
same,FHH TP Cmax,fresh human hepatocytes; fresh human hepatocytes,88 pmol/mill cells
same,FHH TP AUC,"fresh human hepatocytes; fresh human hepatocytes, 6, 24 and 48 hours",2393 pmol · hr/mill cells
